Test results reported in patent publication US20180044316A1, “POTENTIATORS OF BETA-LACTAM ANTIBIOTICS” (UNIVERSITY OF NOTRE DAME DU LAC, priority 2015, published 2018).
“And” between values parts separate entries of the source, which are not always exact repeats. Equal entries are not always repeated. Where two headings read alike, the source gives them in different places.

What was measured:
[1] = test system: S. aureus MRSA252; assay: MIC determination (broth microdilution), oxacillin with or without kinase inhibitor; format: cell-based, Staphylococcus aureus; conditions: for MIC: Staphylococcus aureus; for MIC of oxacillin in the presence of compound: compound at 7 μg/mL
Method: A protein-kinase inhibitor library of 80 known compounds was tested in a 96-well format against strain MRSA252 for the screening. We first determined MICs (broth microdilution method) (CLSI, Performance Standards for Antimicrobial Susceptibility Testing; Twenty-Second Informational Supplement. CLSI document M100-S22. Clinical and Laboratory Standards Institute; Wayne, Pa.) for all the inhibitors in the library, in case some of them might have antibacterial properties of their own, which could complicate the analysis.
This rapid initial screening identified compound 1 as meeting the selection criteria of lowering the MIC for oxacillin, which was followed up by the actual evaluation of the MIC of oxacillin against S. aureus MRSA252 in the presence of the inhibitor.
(§1) Minimal-inhibitory concentration (MIC) determination. Determination of MICs was done by the microdilution method cation-adjusted in Mueller-Hinton II Broth (CAMHB II, BBL) in accordance with the protocols of CLSI (Performance Standards for Antimicrobial Susceptibility Testing; Twenty-Second Informational Supplement. CLSI document M100-S22. Clinical and Laboratory Standards Institute Wayne, Pa.). A final bacterial inoculum of 5×10^5 CFU/mL was used, and the results were recorded after incubation for 16-20 h at 37° C.

[2] = test system: BlaR1 phosphorylation; assay: BlaR1 phosphorylation by western blot in CBAP-induced NRS128 whole-cell extracts; format: cell-based, Staphylococcus aureus NRS128; conditions: NRS128 induced with 10 μg/mL CBAP, compound at 7 or 17 μg/mL
Method: Next, we tested the effect of exposure of CBAP-induced NRS128 to this kinase inhibitor. Cultures were induced with 10 μg/mL CBAP in the presence of 0, 7, or 17 μg/mL of compound 1. Whole-cell extracts of these bacteria were analyzed for BlaR1 phosphorylation by western blot using anti-Phos-Ser and anti-Phos-Tyr antibodies. Compound 1 inhibited both the phosphotyrosine and phosphoserine kinase activities by as much as 70-90% (FIG. 4).
Detection of BlaR1 phosphorylation in presence of antibiotic. As we had disclosed in a recent publication on fragmentation of BlaR1 during the course of induction, we detect a cleavage at position S283-F284 of BlaR1 (Llarrull et al., J. Biol. Chem. 2011, 286, 38148-38158). This proteolytic cleavage cuts the BlaR1 protein into two fragments of roughly equal sizes (approx. 30-31 kDa). […]
Extracts were prepared as previously described in buffer containing 50 mM Tris pH 7.5, 150 mM NaCl, 2 mM EDTA, 0.55% SDS, 2.5% Triton X-100, and Halt Protease and Phosphatase Inhibitor Cocktail (Thermo Scientific, Waltham, Mass., U.S.A.) and analyzed by Western blot using antibodies against phosphothreonine, phosphotyrosine, and phosphoserine. A ˜30 kDa protein band was detected by the phosphotyrosine and phosphoserine specific antibodies only in cell extracts of S. aureus cells grown with CBAP (FIG. 2). This band was not detected by the phosphothreonine antibody. […]

[3] = test system: MRSA strain NRS123; assay: MIC determination (broth microdilution), oxacillin with or without kinase inhibitor; format: cell-based, Staphylococcus aureus; conditions: for MIC of oxacillin in the presence of compound: compound at 7 μg/mL
Excerpt: (§2) We evaluated the new imidazole analogues for their ability to lower the MIC of oxacillin against MRSA in the same manner as for the kinase inhibitor library. In addition to MRSA252, we expanded our investigation to include strains NRS123 and NRS70, both of which have 95% sequence identities between their BlaR1 proteins and that of NRS128, with the bla operon encoded on plasmids (pMW2 and pN315, respectively).
as §1

[4] = test system: MRSA strain NRS70; assay: as above; format: cell-based, Staphylococcus aureus; conditions: for MIC of oxacillin in the presence of compound: compound at 7 μg/mL
Excerpt: as §2, §1

[5] = test system: BlaR1 phosphorylation; assay: BlaR1 phosphorylation by western blot in CBAP-induced NRS70 whole-cell extracts; format: cell-based, Staphylococcus aureus NRS70; conditions: for tyrosine phosphorylation of the BlaR1 fragment: NRS70, CBAP-induced, 7 μg/mL inhibitor; for serine phosphorylation of BlaR1 fragment: NRS70, even at 17 μg/mL
Method: We then evaluated the ability of compounds 10, 11 or 12 to inhibit tyrosine phosphorylation of BlaR1 in NRS70 extracts. The bacteria were grown under the conditions described earlier for NRS128, induced by CBAP in the absence and presence of 0.7 μg/mL or 7 μg/mL compounds 10, 11 or 12, and analyzed by western blot using antibody against phosphotyrosine (FIG. 5a). […] However, serine phosphorylation was not inhibited by any of these compounds, even at 17 μg/mL (FIG. 6), in contrast to the case of 1, which had inhibited both. This provides evidence for the critical nature of tyrosine phosphorylation for regulation of BlaR1.
To overcome this, we subsequently cleared all S. aureus extracts of Protein A and other immunoglobulin-binding proteins by incubation with IgG Sepharose (GE Healthcare, Little Chalfont, UK) for 1-2 h at room temperature with gentle agitation. After a brief centrifugation, the total protein in the supernatant was quantified by a BCA assay and 20 μg was loaded onto an 11% SDS-PAGE gel. Following electrophoresis, samples were transferred to a nitrocellulose membrane in a 10 mM CAPS (pH 11) buffer containing 10% methanol. Membranes were blocked in 3% BSA for phosphoserine blots or Blotto (3% BSA, 3% milk in TBS) for phosphotyrosine blots. HRP-conjugated primary antibody was applied in either 1% BSA/TBST (phosphoserine, Abcam, Cambridge, UK) or 1.1% milk/TBST (phosphotyrosine, 4G10 Platinum, EMD Millipore, Billerica, Mass., U.S.A.). Phosphoserine blots were developed with Pierce ECL Substrate (Thermo Scientific) and phosphotyrosine blots were developed with SuperSignal West Dura Extended Duration Substrate (Thermo Scientific), then exposed to X-ray film for an appropriate amount of time (30-600 s).

[6] = target: T1, Stk1 protein kinase (Staphylococcus aureus, UniProt A0ABF7PGK0); assay: In vitro phosphorylation assay: Stk1 autophosphorylation; format: biochemical, S. aureus strain NRS70; conditions: IC50, inhibition of Stk1 autophosphorylation, [γ-32P]-ATP 20 μM
Excerpt: (§3) Cloning, expression, and purification of S. aureus Stk1 protein kinase. The stk1 gene for Stk1 protein kinase (SA1063 in S. aureus NRS70) is conserved in all known genomic sequences for S. aureus (Beltramini et al., Infect. Immun. 77, 1406-1416 (2009); Débarbouillé et al., J. Bacteriol. 191, 4070-4081 (2009); Didier et al., FEMS Microbiol. Lett. 306, 30-36 (2010)). We PCR-amplified the DNA fragment corresponding to the entire coding sequences of stk1 from S. aureus strain NRS70 chromosomal DNA with primers STK1fw (5′-[…] […]-3′) and STK1rev (5′-[…] […]-3′). The amplified DNA fragments were then digested with NdeI and XhoI restriction enzymes and cloned into pET28a. After verification of the inserts by DNA sequencing on both strands, the resulting plasmid (termed pETstk1) was introduced into E. coli strain BL21(DE3) for protein expression.
(§4) For purification of Stk1, 5 mL of an overnight culture of BL21(DE3) harboring pETstk1 was inoculated into 500 mL fresh LB medium and grown at 37° C. until the OD600 reached 0.8. Isopropyl β-D-1-thiogalactopyranoside (IPTG) was then added to the culture to a final concentration of 0.5 mM and the culture was shaken at 15° C. overnight. The culture was then centrifuged at 5000 rpm at 4° C. for 15 min. The pellet was resuspended in 20 mL of lysis buffer (25 mM HEPES, 500 mM NaCl, 10 mM imidazole, pH 7.4). After sonication, the lysate was centrifuged at 18,000 g at 4° C. for 45 min. The resulting supernatant containing the His-tagged Stk1 was loaded onto a 5-mL Hitrap Chelating column (GE Healthcare), followed by elution with a linear gradient of imidazole (0-500 mM) in lysis buffer. The fractions containing Stk1 were pooled, concentrated and the buffer was exchanged to 25 mM HEPES, pH 7.4. The resulting sample was then subjected to Q anion-exchange chromatography and eluted with a linear gradient of NaCl (0-1 M). Protein purity was ascertained by sodium dodecyl sulfate polyacrylamide gel electrophoresis (SDS-PAGE) (FIG. 7).
(§5) In vitro phosphorylation assay. […] Band intensities were quantified using GelQuant software. […]

[7] = target: T1, Stk1 protein kinase; assay: In vitro phosphorylation assay: phosphorylation of myelin basic protein (MBP) by Stk1; format: biochemical, S. aureus strain NRS70; conditions: IC50, inhibition of MBP phosphorylation by Stk1, [γ-32P]-ATP 20 μM
Excerpt: as §3, §4, §5

[8] = Staphylococcus aureus, no inhibitor

T1 sequence (A0ABF7PGK0 entry or part of it): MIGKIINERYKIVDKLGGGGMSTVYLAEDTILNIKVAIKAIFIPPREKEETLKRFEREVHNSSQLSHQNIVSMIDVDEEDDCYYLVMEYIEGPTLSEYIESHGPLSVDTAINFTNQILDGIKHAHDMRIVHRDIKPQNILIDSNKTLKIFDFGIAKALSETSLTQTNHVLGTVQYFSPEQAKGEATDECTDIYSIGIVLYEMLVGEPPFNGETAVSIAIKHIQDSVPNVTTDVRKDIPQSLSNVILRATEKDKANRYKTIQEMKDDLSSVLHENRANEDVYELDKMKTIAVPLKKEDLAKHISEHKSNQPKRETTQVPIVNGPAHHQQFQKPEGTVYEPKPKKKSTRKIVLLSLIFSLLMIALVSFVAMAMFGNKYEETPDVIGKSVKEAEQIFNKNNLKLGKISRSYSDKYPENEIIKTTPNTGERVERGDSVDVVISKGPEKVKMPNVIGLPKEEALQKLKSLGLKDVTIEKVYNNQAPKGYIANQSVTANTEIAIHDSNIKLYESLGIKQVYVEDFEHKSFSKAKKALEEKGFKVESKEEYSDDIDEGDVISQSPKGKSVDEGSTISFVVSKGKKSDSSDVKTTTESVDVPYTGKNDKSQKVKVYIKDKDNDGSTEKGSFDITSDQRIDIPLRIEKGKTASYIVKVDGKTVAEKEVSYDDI

Row | Structure (SMILES) | MIC ([1]; without oxacillin, read-out: MIC of the kinase inhibitor alone) | decrease in the MIC of oxacillin ([1]; inhibitor at 7 μg/mL) | inhibition of phosphoserine kinase activity (BlaR1 phosphorylation) ([2]; anti-Phos-Ser western blot) | inhibition of phosphotyrosine kinase activity (BlaR1 phosphorylation) ([2]; anti-Phos-Tyr western blot) | MIC of oxacillin in the presence of compound [1] | MIC of oxacillin in the presence of compound [3] | MIC of oxacillin in the presence of compound [4] | tyrosine phosphorylation of the BlaR1 fragment [5] | serine phosphorylation of BlaR1 fragment [5] | IC50 [6] | IC50 [7] | MIC ([1]; no inhibitor, read-out: MIC of oxacillin) | MIC [3, 8] | MIC [4, 8]
1 | Oc1ccc(-c2nc(-c3ccc(F)cc3)c(-c3ccncc3)[nH]2)cc1 [Compound 1, reference compound] | ≥ 64 µg/mL | four-fold decrease | 70-90% | 70-90% | – | – | – | – | – | – | – | – | – | –
2 | CC(C)(C)c1ccc(-c2nc(-c3ccc(F)cc3)c(-c3ccncc3)[nH]2)cc1 [Compound 10, 2-(4-tert-Butylphenyl)-4-(4-fluorophenyl)-5-(4-pyridyl)imidazole] | – | – | – | – | 2 µg/mL | 8 µg/mL | 4 µg/mL | almost completely abolished | not inhibited | 8.35 µM and 8.8 µM | 5.65 µM and 6.1 µM | – | – | –
3 | CCc1ccc(-c2nc(-c3ccc(F)cc3)c(-c3ccncc3)[nH]2)cc1 [Compound 11, 2-(4-Ethylphenyl)-4-(4-fluorophenyl)-5-(4-pyridyl)imidazole] | – | – | – | – | 16 µg/mL | 4 µg/mL | 0.5 µg/mL | almost completely abolished | not inhibited | 14.6 µM and 14.9 µM and 14.7 µM | 11.6 µM and 12.2 µM and 12 µM | – | – | –
4 | CC(C)Cc1ccc(-c2nc(-c3ccc(F)cc3)c(-c3ccncc3)[nH]2)cc1 [Compound 12, 2-(4-iso-Butylphenyl)-4-(4-fluorophenyl)-5-(4-pyridyl)imidazole] | – | – | – | – | 4 µg/mL | 4 µg/mL | 0.5 µg/mL | almost completely abolished | not inhibited | 16.2 µM and 17 µM and 18 µM | 16.2 µM and 15.3 µM | – | – | –
5 | Cc1onc(-c2ccccc2)c1C(=O)N[C@@H]1C(=O)N2[C@@H]1SC(C)(C)[C@@H]2C(=O)O [oxacillin, reference compound] | – | – | – | – | – | – | – | – | – | – | – | 256 µg/mL | 16 µg/mL | 32 µg/mL
